Experimental data taken from the NIST ThermoML archive (doi:10.1021/je900550v).
± gives the expanded uncertainty stated by the source.

Details: 101.33 kPa, Liquid; for speed of sound: Pulse-echo method; for mass density: Vibrating tube method

CCCCC(=O)[O-].C[NH2+]CCO [2-hydroxy-N-methylethanaminium pentanoate]
Details	mass density [kg/m3]	speed of sound [m/s]	viscosity [mPa·s]
322.91 K	999.412 ± 2.1	1472.3 ± 2.1	–
323.15 K	–	–	66.02 ± 1.9
323.16 K	999.237 ± 2.1	1471.6 ± 2.1	–
323.41 K	999.06 ± 2.1	1470.8 ± 2.1	–
323.65 K	998.891 ± 2.1	1470 ± 2.1	–
323.91 K	998.715 ± 2.1	1469.2 ± 2.1	–
324.16 K	998.543 ± 2.1	1468.5 ± 2.1	–
324.41 K	998.367 ± 2.1	1467.7 ± 2.1	–
324.65 K	998.196 ± 2.1	1467 ± 2.1	–
324.9 K	998.022 ± 2.1	1466.2 ± 2.1	–
325.16 K	997.846 ± 2.1	1465.4 ± 2.1	–
325.4 K	997.672 ± 2.1	1464.7 ± 2.1	–
325.66 K	997.495 ± 2.1	1463.9 ± 2.1	–
325.9 K	997.325 ± 2.1	1463.1 ± 2.1	–
326.16 K	997.148 ± 2.1	1462.4 ± 2.1	–
326.41 K	996.977 ± 2.1	1461.6 ± 2.1	–
326.66 K	996.8 ± 2.1	1460.8 ± 2.1	–
326.9 K	996.626 ± 2.1	1460.1 ± 2.1	–
327.16 K	996.452 ± 2.1	1459.3 ± 2.1	–
327.4 K	996.278 ± 2.1	1458.5 ± 2.1	–
327.66 K	996.103 ± 2.1	1457.8 ± 2.1	–
327.9 K	995.927 ± 2.1	1457 ± 2.1	–
328.15 K	995.753 ± 2.1	1456.2 ± 2.1	–
328.41 K	995.577 ± 2.1	1455.5 ± 2.1	–
328.66 K	995.401 ± 2.1	1454.7 ± 2.1	–
328.9 K	995.229 ± 2.1	1453.9 ± 2.1	–
329.16 K	995.05 ± 2.1	1453.2 ± 2.1	–
329.4 K	994.879 ± 2.1	1452.4 ± 2.1	–
329.65 K	994.701 ± 2.1	1451.6 ± 2.1	–
329.9 K	994.528 ± 2.1	1450.8 ± 2.1	–
330.16 K	994.354 ± 2.1	1450.1 ± 2.1	–
330.41 K	994.177 ± 2.1	1449.3 ± 2.1	–
330.66 K	993.999 ± 2.1	1448.5 ± 2.1	–
330.91 K	993.824 ± 2.1	1447.8 ± 2.1	–
331.16 K	993.649 ± 2.1	1447 ± 2.1	–
331.41 K	993.472 ± 2.1	1446.2 ± 2.1	–
331.66 K	993.296 ± 2.1	1445.5 ± 2.1	–
331.91 K	993.121 ± 2.1	1444.7 ± 2.1	–
332.16 K	992.945 ± 2.1	1443.9 ± 2.1	–
332.41 K	992.768 ± 2.1	1443.2 ± 2.1	–
332.66 K	992.592 ± 2.1	1442.4 ± 2.1	–
332.91 K	992.415 ± 2.1	1441.6 ± 2.1	–
333.16 K	992.239 ± 2.1	1440.8 ± 2.1	–
333.41 K	992.064 ± 2.1	1440.1 ± 2.1	–
333.66 K	991.886 ± 2.1	1439.3 ± 2.1	–
333.91 K	991.71 ± 2.1	1438.5 ± 2.1	–
334.16 K	991.536 ± 2.1	1437.8 ± 2.1	–
334.41 K	991.358 ± 2.1	1437 ± 2.1	–
334.66 K	991.18 ± 2.1	1436.2 ± 2.1	–
334.91 K	991.004 ± 2.1	1435.5 ± 2.1	–
335.16 K	990.827 ± 2.1	1434.7 ± 2.1	–
335.41 K	990.651 ± 2.1	1434 ± 2.1	–
335.66 K	990.472 ± 2.1	1433.2 ± 2.1	–
335.91 K	990.295 ± 2.1	1432.4 ± 2.1	–
336.16 K	990.117 ± 2.1	1431.7 ± 2.1	–
336.41 K	989.938 ± 2.1	1430.9 ± 2.1	–
336.66 K	989.761 ± 2.1	1430.1 ± 2.1	–
336.9 K	989.584 ± 2.1	1429.3 ± 2.1	–
337.16 K	989.407 ± 2.1	1428.6 ± 2.1	–
337.4 K	989.229 ± 2.1	1427.8 ± 2.1	–
337.66 K	989.051 ± 2.1	1427 ± 2.1	–
337.9 K	988.872 ± 2.1	1426.3 ± 2.1	–
338.15 K	988.703 ± 2.1	1425.6 ± 2.1	–
